From patent US9193689B2, “3-aryl-5-substituted-isoquinolin-1-one compounds and their therapeutic use” (INSTITUTE OF CANCER RESEARCH: ROYAL CANCER HOSPITAL (THE), priority 2012, dated 2015) come the findings set out here.

In one assay the test system is DLD1 cells. Put plainly: Long-Term Clonogenic Assay (DLD1 cells). It is filed as cell-based. The procedure: Clonogenic Inhibition in DLD1 or HT55 Cells
In order to determine the efficacy of chronic dosing of putative TNKS inhibitors, long term clonogenic or ‘colony formation’ assays were carried out. This included the sparse seeding of cells in a 6-well dish followed by continuous dosing of cells over 12-14 days (depending on relative cell growth). Appropriate cell lines (DLD1 or HT55) were seeded at 500 cells/well in a 6-well dish in DMEM supplemented with FBS. […] Dosages were carried out in triplicate. Cell media containing compound or DMSO only was replenished every 48 hours. Termination of the assay included the fixation of cells with trichlororacetic acid (1 mL, 10% (v/v), Sigma Aldrich, cat. no. T6399) and incubation for 16 hours at 4° C. Fixed cells were then washed with water, allowed to dry and stained with sulforhodamine B solution (sulforhodamine B 0.05% (w/v), Sigma Aldrich cat. no. S1402, acetic acid 1% (v/v), Fisher Scientific, cat. no. A/0400/PB17)) for 12 hours at room temperature. The stain was then removed and the cells washed copiously with aqueous acetic acid (1% v/v) and allowed to dry.
The data was normalised to the DMSO control and was expressed as surviving fraction as a function of inhibitor dose.

The next assay deals with TNKS1 (Homo sapiens, UniProt O95271). Put plainly: TNKS1/PARP Biochemical Assay (TNKS1).

Some results are limits rather than exact numbers.

In the case of `Cc1cccc2c(=O)[nH]c(-c3ccc(CN4CCNCC4C)cc3)cc12` (single isomer, unassigned) [IQ-051-3], the “Clonogenic SF50 (DLD1)” value in the assay with DLD1 cells is under 2 µM. Further, the IC50 (usually the point on the concentration scale where inhibition reaches its midpoint) against TNKS1 was under 50 nM.

Regarding `Cc1cccc2c(=O)[nH]c(-c3ccc(CN4CCNC(C)C4)cc3)cc12` (single isomer, unassigned) [IQ-084-1], the “Clonogenic SF50 (DLD1)” value with DLD1 cells is under 2 µM. On TNKS1, this compound gave a half-maximal inhibitory concentration (IC50) of under 50 nM.

For `Cc1cccc2c(=O)[nH]c(-c3ccc(CN4CCNC(C)C4)cc3)cc12` (single isomer, unassigned) [IQ-084-2], in the assay with DLD1 cells, the “Clonogenic SF50 (DLD1)” value is under 2 µM. Further, the IC50 on TNKS1 is under 50 nM.

`Cc1cccc2c(=O)[nH]c(-c3ccc(N(C)C)cc3)cc12` [IQ-001]: in the assay on DLD1 cells, the “Clonogenic SF50 (DLD1)” value is under 2 µM. Besides, on TNKS1, the half-maximal inhibitory concentration (IC50) was under 20 nM.

As to `CC(=O)N1CCN(c2ccc(-c3cc4c(C)cccc4c(=O)[nH]3)cn2)CC1` [IQ-005], in the assay on DLD1 cells, the “Clonogenic SF50 (DLD1)” value was under 2 µM. On TNKS1, the IC50 is under 20 nM.

Turning to `CN(C)C1CCN(c2ccc(-c3cc4c(Cl)cccc4c(=O)[nH]3)cn2)C1` (stereo not shown) [IQ-009], in the assay with DLD1 cells, the “Clonogenic SF50 (DLD1)” value is under 2 µM. For the same compound, the IC50 against TNKS1 is under 500 nM.

Turning to `CC(=O)N1CCN(c2ccc(-c3cc4c(C)cccc4c(=O)[nH]3)cc2)CC1` [IQ-017], the “Clonogenic SF50 (DLD1)” value in the assay on DLD1 cells is under 2 µM. The same compound gave an IC50 on TNKS1 of under 20 nM.

Consider `CN(C)CCN1CCN(c2ccc(-c3cc4c(Cl)cccc4c(=O)[nH]3)cn2)CC1` [IQ-019], for which, in the assay with DLD1 cells, the “Clonogenic SF50 (DLD1)” value is under 2 µM. The compound further showed an IC50 against TNKS1 of under 50 nM.

For `Cc1cccc2c(=O)[nH]c(-c3cnc(N4CCN(C)CC4)c(F)c3)cc12` [IQ-021], the “Clonogenic SF50 (DLD1)” value in the assay on DLD1 cells was under 2 µM. Moreover, the IC50 on TNKS1 was under 50 nM.

As for `Cc1cccc2c(=O)[nH]c(-c3cnc(N4CCNCC4)c(F)c3)cc12` [IQ-023], the “Clonogenic SF50 (DLD1)” value in the assay with DLD1 cells was under 2 µM. At TNKS1, this compound registered an IC50 of under 50 nM.

Turning to `CN1CCN(Cc2ccc(-c3cc4c(Cl)cccc4c(=O)[nH]3)cc2)CC1` [IQ-043], the “Clonogenic SF50 (DLD1)” value in the assay with DLD1 cells is under 2 µM. Also, the IC50 against TNKS1 is under 500 nM.

With `Cc1cccc2c(=O)[nH]c(-c3ccc(C(C)N4CCN(C)CC4)cc3)cc12` (stereo not shown) [IQ-048], in the assay on DLD1 cells, the “Clonogenic SF50 (DLD1)” value was under 2 µM. The same compound yielded an IC50 against TNKS1 of under 20 nM.

In the case of `Cc1cccc2c(=O)[nH]c(-c3ccc(CN4CCN(C)C(=O)C4)cc3)cc12` [IQ-054], the “Clonogenic SF50 (DLD1)” value in the assay with DLD1 cells is under 2 µM. The IC50 against TNKS1 is under 20 nM.

In the case of `Cc1cccc2c(=O)[nH]c(-c3ccc(CN4CCN(C)CC4)nc3)cc12.O=CO` [IQ-057], in the assay with DLD1 cells, the “Clonogenic SF50 (DLD1)” value is under 2 µM. The compound also displayed an IC50 at TNKS1 of under 50 nM.

For the compound `Cc1cccc2c(=O)[nH]c(-c3ccc(CN4CCN(C(=O)NC(C)(C)C)CC4)cc3)cc12` [IQ-068, 4-[4-(5-methyl-1-oxo-1,2-dihydro-isoquinolin-3-yl)-benzyl]-piperazine-1-carboxylic acid tert-butylamide], the “Clonogenic SF50 (DLD1)” value with DLD1 cells was under 2 µM. On TNKS1, this compound yielded an IC50 of under 50 nM.

Turning to `Cc1cccc2c(=O)[nH]c(-c3ccc(CN4CCC(O)CC4)cc3)cc12` [IQ-074, 3-[4-(4-Hydroxy-piperidin-1-ylmethyl)-phenyl]-5-methyl-2H-isoquinolin-1-one], the “Clonogenic SF50 (DLD1)” value with DLD1 cells was under 2 µM. For the same compound, at TNKS1, the IC50 was under 50 nM.

Take `Cc1cccc2c(=O)[nH]c(-c3ccc(CN4C[C@@H]5C[C@H]4CN5)cc3)cc12` [IQ-086]: the “Clonogenic SF50 (DLD1)” value in the assay on DLD1 cells was under 2 µM. Further, the IC50 against TNKS1 is under 20 nM.

`Cc1cccc2c(=O)[nH]c(-c3ccc(C(=O)N4CCC(N(C)C)CC4)cc3)cc12` [IQ-106]: the “Clonogenic SF50 (DLD1)” value with DLD1 cells is under 2 µM. The IC50 on TNKS1 was under 50 nM.

As to `Cc1cccc2c(=O)[nH]c(-c3ccc(S(=O)(=O)N4CCN(C)CC4)cc3)cc12` [IQ-121], the “Clonogenic SF50 (DLD1)” value with DLD1 cells was under 2 µM. This compound gave a 50% inhibitory concentration (IC50) against TNKS1 of under 50 nM.

Regarding `Cc1cc(F)cc2c(=O)[nH]c(-c3ccc(C(=O)N4CCN(C)CC4)cc3)cc12.O=CO` [IQ-190], in the assay with DLD1 cells, the “Clonogenic SF50 (DLD1)” value was under 2 µM. This compound also showed an IC50 against TNKS1 of under 20 nM.
